Laboratory results as given in US20100048617A1, “COMPOUNDS” (SmithKline Beecham Corp., priority 2006, published 2010).
Counter-ions that a name gives are not always drawn.

Target: T1, SCD (SCD-containing rat microsomes) (Rattus norvegicus, UniProt P07308)
T1 construct: SCD-containing rat microsomes (2 μg protein); from tissue
T1 sequence (P07308 1-358): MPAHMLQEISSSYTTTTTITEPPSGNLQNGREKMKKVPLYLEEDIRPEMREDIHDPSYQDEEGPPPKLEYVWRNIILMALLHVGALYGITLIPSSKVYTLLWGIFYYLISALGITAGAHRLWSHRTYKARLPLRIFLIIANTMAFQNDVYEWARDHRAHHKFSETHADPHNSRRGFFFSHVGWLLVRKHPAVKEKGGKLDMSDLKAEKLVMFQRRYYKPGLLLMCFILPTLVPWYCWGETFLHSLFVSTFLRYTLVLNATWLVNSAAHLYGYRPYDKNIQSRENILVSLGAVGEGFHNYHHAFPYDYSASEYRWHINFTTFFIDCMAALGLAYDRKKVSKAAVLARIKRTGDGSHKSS
Experiment: in vitro assay for SCD activity based on production of [3H]H2O from [9,10-3H] stearoyl Coenzyme A
Type: biochemical
Conditions: SCD-containing rat microsomes (2 μg protein), substrate 1 μM, 6 min incubation, 5 min preincubation with compound; read-out: average pIC50 value (converted)
Description: The compounds of the present invention may be analysed in vitro for SCD activity using an assay based on the production of [^3H]H2O, which is released during the enzyme-catalyzed generation of the monounsaturated fatty acyl CoA product. The assay is performed in a 96-well filtration plates. The titrated substrate used in the assay is the [9,10-^3H] stearoyl Coenzyme A. After incubation for 6 minutes of SCD-containing rat microsomes (2 μg protein) and substrate (1 μM), the labelled fatty acid acyl-CoA species and microsomes are absorbed with charcoal and separated from [^3H]H2O by centrifugation. The formation of [^3H]H2O is used as a measure of SCD activity. Compounds at concentrations starting at 10 μM to 0.1 nM or vehicle (DMSO) are preincubated for 5 minutes with the microsomes before addition of the substrate. The concentration-responses are fitted with sigmoidal curves to obtain IC50 values.

## COc1ccc(Cl)cc1Cn1nc(C(=O)Nc2ccc3c(c2)CCNC3)cc1C [1-{[5-chloro-2-(methyloxy)phenyl]methyl}-5-methyl-N-(1,2,3,4-tetrahydro-6-isoquinolinyl)-1H-pyrazole-3-carboxamide hydrochloride]
  IC50: 3.16 to 10 µM

## COc1ccc(OCC(C)C)c(Cn2nc(C(=O)Nc3ccc4c(c3)CCNC4)cc2C)c1 [5-methyl-1-({5-(methyloxy)-2-[(2-methylpropyl)oxy]phenyl}methyl)-N-(1,2,3,4-tetrahydro-6-isoquinolinyl)-1H-pyrazole-3-carboxamide hydrochloride]
  IC50: > 10 µM
